{"source": "patent US20120283175A1", "about": "“ANTIBACTERIAL COMPOSITIONS” (Achaogen, Inc., priority 2009, published 2012)", "tested_on": "K. pneumo. (ATCC43816)", "test": "Neutropenic thigh in vivo efficacy model (mice)", "design": "species or system Klebsiella pneumoniae", "data": [{"compound": "CN[C@H](CC(C)C)C(=O)N[C@H]1C(=O)N[C@@H](CC(N)=O)C(=O)N[C@H]2C(=O)N[C@H]3C(=O)N[C@H](C(=O)N[C@H](C(=O)O)c4cc(O)cc(O)c4-c4cc3ccc4O)[C@H](O)c3ccc(c(Cl)c3)Oc3cc2cc(c3O[C@@H]2O[C@H](CO)[C@@H](O)[C@H](O)[C@H]2O[C@H]2C[C@](C)(N)[C@H](O)[C@H](C)O2)Oc2ccc(cc2Cl)[C@H]1O", "note": "[Vancomycin, vancomycin]", "values": [{"measurement": "in vivo synergy with multiple LpxC inhibitors", "setting": "K. pneumo. (ATCC43816), summary", "value": "surprising in vivo synergy"}, {"measurement": "reduction in CFU, single agent", "setting": "vancomycin alone at 440 mg/kg/day, ATCC43816", "value": "no significant reduction in CFU"}]}]}
